The source of these data is ChEMBL document CHEMBL1140103, “Synthesis and evaluation of [N-methyl-11C]N-desmethyl-loperamide as a new and improved PET radiotracer for imaging P-gp function” (J Med Chem, 2008).

As usually defined, the Ki is a dissociation constant, usually derived from enzyme kinetics or from competition with a known ligand. A lower Ki goes with tighter binding. As usually defined, the pKa is the pH at which an ionisable group is half protonated. As usually defined, the logD is lipophilicity at a set pH, counting ionised and neutral species.

In data set [1] the target is T1, Alpha-1A adrenergic receptor (Homo sapiens, UniProt P35348).
T1 sequence (P35348 whole entry): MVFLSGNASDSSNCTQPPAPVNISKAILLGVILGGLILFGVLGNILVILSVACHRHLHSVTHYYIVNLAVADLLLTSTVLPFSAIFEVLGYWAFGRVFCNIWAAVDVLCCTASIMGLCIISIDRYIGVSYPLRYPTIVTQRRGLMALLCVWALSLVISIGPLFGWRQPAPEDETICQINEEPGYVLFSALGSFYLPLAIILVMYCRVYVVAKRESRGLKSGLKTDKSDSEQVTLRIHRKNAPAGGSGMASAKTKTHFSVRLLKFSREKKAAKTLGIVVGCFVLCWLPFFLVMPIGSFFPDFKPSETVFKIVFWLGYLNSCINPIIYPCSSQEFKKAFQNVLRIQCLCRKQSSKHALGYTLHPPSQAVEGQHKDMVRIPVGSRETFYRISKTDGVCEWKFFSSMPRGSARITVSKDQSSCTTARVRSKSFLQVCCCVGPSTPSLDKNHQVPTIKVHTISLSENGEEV
As to the kind of experiment: Displacement of [125I]HEAT from adrenergic alpha1A receptor. For orientation: In a radioligand displacement assay an active substance lowers the binding of a labelled ligand.

Data set [2] addresses Histamine H2 receptor (Homo sapiens, UniProt P25021). As to the kind of experiment: Displacement of [3H]tiotidine from human histamine H2 receptor.
The target in data set [3] is T2, Alpha-2B adrenergic receptor (Homo sapiens, UniProt P18089).
T2 sequence (P18089 whole entry): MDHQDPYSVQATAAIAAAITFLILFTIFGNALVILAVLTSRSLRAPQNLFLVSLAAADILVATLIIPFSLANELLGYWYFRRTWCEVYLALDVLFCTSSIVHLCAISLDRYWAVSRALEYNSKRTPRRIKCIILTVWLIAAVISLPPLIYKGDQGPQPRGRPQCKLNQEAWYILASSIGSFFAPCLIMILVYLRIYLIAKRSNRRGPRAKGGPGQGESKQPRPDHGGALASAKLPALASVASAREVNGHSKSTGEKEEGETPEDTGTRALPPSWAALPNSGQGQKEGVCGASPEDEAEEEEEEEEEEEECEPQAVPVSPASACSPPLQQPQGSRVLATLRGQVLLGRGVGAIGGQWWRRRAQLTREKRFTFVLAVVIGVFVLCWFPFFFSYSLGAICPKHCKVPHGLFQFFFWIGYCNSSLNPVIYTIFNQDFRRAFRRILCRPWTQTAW
As to the kind of experiment: Displacement of [125I]HEAT from adrenergic alpha2B receptor.

Data set [4] deals with Sigma non-opioid intracellular receptor 1 (Rattus norvegicus, UniProt Q9R0C9). As to the kind of experiment: Displacement of [3H]Pentazocine from rat sigma 1 receptor in rat PC12 cells. It is filed as cell-based, PC-12.
Data set [5] has as its target Histamine H3 receptor (Homo sapiens, UniProt Q9Y5N1). As to the kind of experiment: Displacement of [3H]alpha-methylhistamine from human histamine H3 receptor.
Data set [6] deals with Mu-type opioid receptor (Homo sapiens, UniProt P35372). As to the kind of experiment: Displacement of [3H]DAMGO from mu opioid receptor.
A short description of data set [7]: Displacement of [3H]DTG from rat sigma 2 receptor in rat PC12 cells. It is filed as cell-based. The settings on record: pc-12.
Data set [8] deals with T3, D(4) dopamine receptor (Homo sapiens, UniProt P21917).
T3 sequence (P21917 whole entry): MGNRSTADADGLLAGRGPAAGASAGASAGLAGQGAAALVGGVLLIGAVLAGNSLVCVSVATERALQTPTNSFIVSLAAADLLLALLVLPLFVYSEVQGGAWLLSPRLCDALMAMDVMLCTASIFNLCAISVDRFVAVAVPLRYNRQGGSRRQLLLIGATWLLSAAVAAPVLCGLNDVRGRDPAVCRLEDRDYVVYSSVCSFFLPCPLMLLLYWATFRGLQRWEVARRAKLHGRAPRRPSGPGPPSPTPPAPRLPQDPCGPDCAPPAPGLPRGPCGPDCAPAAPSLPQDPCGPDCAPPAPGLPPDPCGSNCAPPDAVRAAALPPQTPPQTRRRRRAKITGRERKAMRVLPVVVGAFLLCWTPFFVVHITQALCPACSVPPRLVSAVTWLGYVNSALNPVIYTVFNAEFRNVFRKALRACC
As to the kind of experiment: Displacement of [3H]N-methylspiperone from dopamine D4 receptor.

Data set [9] addresses Sodium-dependent serotonin transporter (Homo sapiens, UniProt P31645). As to the kind of experiment: Displacement of [3H]citalopram from human SERT.
Data set [10] deals with Histamine H1 receptor (Homo sapiens, UniProt P35367). As to the kind of experiment: Displacement of [3H]pyrilamine from human histamine H1 receptor.
For data set [11], the target named is T4, Alpha-2A adrenergic receptor (Homo sapiens, UniProt P08913).
T4 sequence (P08913 whole entry): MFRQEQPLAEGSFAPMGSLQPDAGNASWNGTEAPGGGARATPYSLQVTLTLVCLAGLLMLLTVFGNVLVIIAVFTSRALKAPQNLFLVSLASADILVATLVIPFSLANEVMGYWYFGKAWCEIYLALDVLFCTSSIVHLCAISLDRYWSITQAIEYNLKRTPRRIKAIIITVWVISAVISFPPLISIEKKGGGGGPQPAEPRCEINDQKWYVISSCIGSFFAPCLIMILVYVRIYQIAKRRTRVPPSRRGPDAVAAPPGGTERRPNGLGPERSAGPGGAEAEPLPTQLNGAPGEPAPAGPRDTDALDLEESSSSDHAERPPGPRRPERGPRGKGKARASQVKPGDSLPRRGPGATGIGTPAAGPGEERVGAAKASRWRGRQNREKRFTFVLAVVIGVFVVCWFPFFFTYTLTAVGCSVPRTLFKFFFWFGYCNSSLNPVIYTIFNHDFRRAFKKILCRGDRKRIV
As to the kind of experiment: Displacement of [125I]HEAT from adrenergic alpha2A receptor.

Data set [12] deals with T5, Alpha-2C adrenergic receptor (Homo sapiens, UniProt P18825).
T5 sequence (P18825 whole entry): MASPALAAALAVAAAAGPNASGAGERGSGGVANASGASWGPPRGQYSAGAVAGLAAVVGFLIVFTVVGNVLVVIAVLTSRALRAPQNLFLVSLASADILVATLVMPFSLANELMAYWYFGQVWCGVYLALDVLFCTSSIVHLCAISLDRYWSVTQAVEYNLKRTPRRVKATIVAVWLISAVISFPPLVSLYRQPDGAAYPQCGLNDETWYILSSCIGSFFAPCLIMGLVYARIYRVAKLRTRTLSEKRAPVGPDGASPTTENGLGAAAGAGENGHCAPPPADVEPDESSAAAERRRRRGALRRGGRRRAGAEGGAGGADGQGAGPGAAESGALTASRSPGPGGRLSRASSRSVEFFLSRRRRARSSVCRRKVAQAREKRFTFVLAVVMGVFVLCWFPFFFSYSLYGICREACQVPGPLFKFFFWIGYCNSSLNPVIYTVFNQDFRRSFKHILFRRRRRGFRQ
As to the kind of experiment: Displacement of [125I]HEAT from adrenergic Alpha-2C receptor.

Data set [13] in a line: Dissociation constant, pKa of the compound. It is filed as physicochemical.
Data set [14] in a line: Lipophilicity, log D of the compound. The format is physicochemical. As to conditions: octanol/water.

Histamine H1 receptor, sequence (P35367 whole entry): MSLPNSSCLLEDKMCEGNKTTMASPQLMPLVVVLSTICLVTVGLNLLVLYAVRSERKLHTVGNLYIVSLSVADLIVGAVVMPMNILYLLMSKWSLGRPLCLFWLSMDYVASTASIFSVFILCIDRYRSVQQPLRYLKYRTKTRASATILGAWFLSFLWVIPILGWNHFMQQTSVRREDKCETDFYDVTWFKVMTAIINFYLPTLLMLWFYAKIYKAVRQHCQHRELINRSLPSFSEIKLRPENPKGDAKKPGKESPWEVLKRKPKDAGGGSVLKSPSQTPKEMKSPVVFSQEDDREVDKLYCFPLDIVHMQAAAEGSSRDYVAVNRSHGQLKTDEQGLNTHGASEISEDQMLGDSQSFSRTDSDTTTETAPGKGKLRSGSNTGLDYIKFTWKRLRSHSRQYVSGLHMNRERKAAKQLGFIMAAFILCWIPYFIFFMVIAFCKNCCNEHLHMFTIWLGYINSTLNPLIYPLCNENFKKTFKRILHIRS
Histamine H3 receptor, sequence (Q9Y5N1 whole entry): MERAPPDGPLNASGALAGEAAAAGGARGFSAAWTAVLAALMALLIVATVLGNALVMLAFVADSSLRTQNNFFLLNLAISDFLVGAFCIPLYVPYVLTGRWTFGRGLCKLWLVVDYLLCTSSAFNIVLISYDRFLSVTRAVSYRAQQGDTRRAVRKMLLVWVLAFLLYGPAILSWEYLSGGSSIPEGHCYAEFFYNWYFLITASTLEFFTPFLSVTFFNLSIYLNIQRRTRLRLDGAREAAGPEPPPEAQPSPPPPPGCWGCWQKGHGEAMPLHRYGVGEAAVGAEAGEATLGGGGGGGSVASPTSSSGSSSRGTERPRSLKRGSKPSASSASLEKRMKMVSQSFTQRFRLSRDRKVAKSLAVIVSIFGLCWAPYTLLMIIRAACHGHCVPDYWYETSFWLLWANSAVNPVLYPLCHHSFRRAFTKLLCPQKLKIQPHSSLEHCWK
Histamine H2 receptor, sequence (P25021 whole entry): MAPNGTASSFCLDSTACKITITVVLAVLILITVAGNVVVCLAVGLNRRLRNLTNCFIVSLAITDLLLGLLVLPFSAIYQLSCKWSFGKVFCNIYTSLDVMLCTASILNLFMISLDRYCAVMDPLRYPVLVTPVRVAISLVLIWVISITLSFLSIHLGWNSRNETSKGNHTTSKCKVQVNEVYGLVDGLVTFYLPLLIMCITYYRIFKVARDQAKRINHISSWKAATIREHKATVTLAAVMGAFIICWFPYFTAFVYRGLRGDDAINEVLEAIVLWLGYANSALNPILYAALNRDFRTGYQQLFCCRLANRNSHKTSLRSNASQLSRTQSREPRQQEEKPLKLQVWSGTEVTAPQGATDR
Mu-type opioid receptor, sequence (P35372 whole entry): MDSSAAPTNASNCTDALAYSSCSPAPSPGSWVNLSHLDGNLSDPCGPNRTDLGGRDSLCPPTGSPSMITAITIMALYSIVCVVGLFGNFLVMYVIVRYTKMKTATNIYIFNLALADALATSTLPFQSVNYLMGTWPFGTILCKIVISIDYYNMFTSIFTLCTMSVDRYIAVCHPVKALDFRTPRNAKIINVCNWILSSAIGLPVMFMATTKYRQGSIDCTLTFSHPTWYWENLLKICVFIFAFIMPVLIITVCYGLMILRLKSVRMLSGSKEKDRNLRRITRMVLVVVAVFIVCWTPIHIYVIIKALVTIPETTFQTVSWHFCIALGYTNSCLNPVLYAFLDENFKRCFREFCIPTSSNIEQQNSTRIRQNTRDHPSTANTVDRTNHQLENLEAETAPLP
Sodium-dependent serotonin transporter, sequence (P31645 whole entry): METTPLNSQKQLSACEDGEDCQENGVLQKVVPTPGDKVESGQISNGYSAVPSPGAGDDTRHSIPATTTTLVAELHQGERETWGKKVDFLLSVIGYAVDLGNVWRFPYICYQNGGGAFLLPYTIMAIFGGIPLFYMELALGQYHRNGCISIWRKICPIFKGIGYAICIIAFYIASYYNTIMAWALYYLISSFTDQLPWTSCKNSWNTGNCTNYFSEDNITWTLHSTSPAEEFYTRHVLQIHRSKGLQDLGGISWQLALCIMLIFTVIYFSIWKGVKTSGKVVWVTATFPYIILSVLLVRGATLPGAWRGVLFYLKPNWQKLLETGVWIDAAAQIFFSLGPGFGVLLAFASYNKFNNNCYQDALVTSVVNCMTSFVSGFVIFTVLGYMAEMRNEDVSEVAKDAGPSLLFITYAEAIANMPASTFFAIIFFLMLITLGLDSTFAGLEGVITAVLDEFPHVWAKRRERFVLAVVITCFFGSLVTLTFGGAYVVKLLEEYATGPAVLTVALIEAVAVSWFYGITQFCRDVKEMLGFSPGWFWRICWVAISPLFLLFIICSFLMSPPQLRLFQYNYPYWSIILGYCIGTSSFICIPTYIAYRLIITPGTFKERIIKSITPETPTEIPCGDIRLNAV
Sigma non-opioid intracellular receptor 1, sequence (Q9R0C9 whole entry): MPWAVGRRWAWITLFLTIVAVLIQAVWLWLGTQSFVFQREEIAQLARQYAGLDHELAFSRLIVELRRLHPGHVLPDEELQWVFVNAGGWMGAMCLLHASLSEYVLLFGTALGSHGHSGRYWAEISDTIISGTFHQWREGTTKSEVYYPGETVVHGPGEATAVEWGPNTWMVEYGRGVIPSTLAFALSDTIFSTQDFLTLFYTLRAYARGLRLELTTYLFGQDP

`CNC(=O)C(CCN1CCC(O)(c2ccc(Cl)cc2)CC1)(c1ccccc1)c1ccccc1`: the inhibition constant Ki in data set [1] stood at 9.9 nM; in data set [2], 1.7 nM; in [3], 7 nM; in [4], 0.8 nM; in [5] it was 9.3 nM; in data set [6], 0.6 nM. Further, the Ki in [7] stood at 1.9 nM; in [8], 1.1 nM; in data set [9], 6.2 nM; in data set [10], 4.2 nM; in data set [11], 1 nM; in data set [12], 2.4 nM. This compound registered a pKa in [13] of 7.2.
As to `[11CH3]NC(=O)C(CCN1CCC(O)(c2ccc(Cl)cc2)CC1)(c1ccccc1)c1ccccc1`, in data set [14], the logD was 2.6. For the same compound, the pKa in [13] (read-out: pKa) came to 7.96.
